Experimental data published in patent US20070053062A1, “Optical part and projection type display apparatus using same” (priority 2005, published 2007).

Assays:
[1] = test system: mildews; assay: Mildew proofness of lenses with anti-reflecting membrane containing mildew proofing agent, left to stand in thermo-hygrostat; assay type: cell-based; set-up: key: ∘: Growing of mildews was not recognized by visual inspection and inspection with a 5x magnifier.; Growing of mildews was not recognized by visual inspection, but recognized by inspection with a 5x magnifier.; xx: Growing of mildews was recognized by both the visual inspection and the inspection with a 5x magnifier; conditions: acrylic resin lens, anti-reflecting membrane containing the agent; 1 week in thermo-hygrostat of 40° C. and 95% RH; visual inspection and 5× magnifier
Description: Anti-reflecting paints containing the mildew proofing agentwere prepared by mixing a silica sol solution as a binder (containing 2-propanol as a main solvent and 10% by weight of an alkoxysilane polymer) (2 parts by weight), a 5 wt % dispersion of silicon dioxide having an average length of major axis of about 60 nm as inorganic oxide particles (35 parts by weight), 2-propanol (100 parts by weight), and a 2 wt % 2-propanol solution of the mildew proofing agent (2 parts by weight). Here, 2-propanol was used as the solvent because most of the mildew proofing agents only partially dissolve in water.
Next, the same lens of acrylic resin as used in Example 1 as one of the optical parts of the present invention was cleaned in the same manner as in Example 1, and thereafter the lens was coated with the anti-reflecting paint containing the mildew proofing agent in place of the anti-reflecting paint used in Example 1, followed by heating the coat. In this case, the anti-reflecting paint was also coated on the back surface of the lens as in Example 1. Thus, a lens having an anti-reflecting membrane containing the mildew proofing agent was produced.
Next, in order to confirm whether these lenses had mildew proofness or not, these lenses were left to stand for 1 week in a thermo-hygrostat of 40° C. and 95% RH. For comparison, the lens having the anti-reflecting membrane containing no mildew proofing agent was also left to stand together. After 1 week, it was confirmed by visual inspection and inspection with a 5× magnifier whether mildews grew or not.

[2] = test system: mildews; assay: Mildew proofness of the lenses left to stand in thermo-hygrostat after dipping in hot water; assay type: cell-based; set-up: key to Growing of mildew: ∘: Growing of mildews was not recognized by visual inspection and inspection with a 5x magnifier.; Growing of mildews was not recognized by visual inspection, but recognized by inspection with a 5x magnifier.; xx: Growing of mildews was recognized by both the visual inspection and the inspection with a 5x magnifier; conditions: lens dipped in hot water at 40° C. for 1 hour; for Growing of mildews (in words): then 1 week at 40° C. and 95% RH; for Growing of mildew: then 1 week in thermo-hygrostat of 40° C. and 95% RH, visual inspection and 5× magnifier
Description: Then, the lenses having the anti-reflecting membrane containing the mildew proofing agent were dipped in hot water at 40° C. for 1 hour and thereafter were left to stand for 1 week in a thermo-hygrostat of 40° C. and 95% RH. After lapse of 1 week, it was examined by visual inspection and inspection with a 5× magnifier whether mildews grew or not.
In compounds 13, 16, 18 and 20, the elemental proportion of nitrogen was 6% by weight or more.

Structure (SMILES)	Growing of mildew [1]	Growing of mildews (in words) [2]	Growing of mildew [2]
CCCCCCCC[n+]1ccccc1 [Compound 13]	∘	Growing of a few mildews was seen	x
CCCCCCCCCC[n+]1ccccc1 [Compound 14]	∘	–	∘
CCCC[n+]1ccccc1 [Compound 16]	∘	Growing of a few mildews was seen	x
CCCCCC[n+]1ccccc1 [Compound 17]	∘	–	∘
C[n+]1ccccc1 [Compound 18]	∘	Growing of a few mildews was seen	x
CC(C)(C)OC(=O)Nc1ccc(Cl)cc1 [Compound 27]	∘	–	–
CC(C)(C)OC(=O)Nc1ccc(I)cc1 [Compound 28]	∘	–	–
O=C(Nc1ccc(Cl)cc1)Oc1ccccc1 [Compound 29]	∘	–	–
